According to the NIST ThermoML archive (doi:10.1016/j.jct.2014.07.026):

Test: mn = molality of the nth substance listed, in mol/kg
Conditions: 100 kPa, Liquid; for mass density: Vibrating tube method; for speed of sound: Frequency=2 MHz, Linear variable-path acoustic interferometer

CC(C)[C@H](N)C(=O)[O-].CCCCn1cc[n+](C)c1 [1-butyl-3-methylimidazolium L-valinate] + O
Conditions | mass density [kg/m3] | speed of sound [m/s]
293.15 K, m1 = 0.03333 | 999.132 | –
293.15 K, m1 = 0.05233 | 999.647 | –
293.15 K, m1 = 0.07111 | 1000.15 | –
293.15 K, m1 = 0.08607 | 1000.55 | –
293.15 K, m1 = 0.1001 | 1000.93 | –
293.15 K, m1 = 0.138 | 1001.93 | –
293.15 K, m1 = 0.1804 | 1003.02 | –
293.15 K, m1 = 0.2187 | 1004 | –
293.15 K, m1 = 0.2653 | 1005.21 | –
293.15 K, m1 = 0.3295 | 1006.77 | –
293.15 K, m1 = 0.3595 | 1007.51 | –
293.15 K, m1 = 0.4046 | 1008.61 | –
293.15 K, m1 = 0.4561 | 1009.85 | –
298.15 K, m1 = 0.03333 | 997.952 | –
298.15 K, m1 = 0.05233 | 998.454 | –
298.15 K, m1 = 0.06361 | – | 1509.7
298.15 K, m1 = 0.07111 | 998.947 | –
298.15 K, m1 = 0.08607 | 999.329 | –
298.15 K, m1 = 0.1001 | 999.708 | –
298.15 K, m1 = 0.1178 | – | 1519.6
298.15 K, m1 = 0.138 | 1000.66 | –
298.15 K, m1 = 0.1494 | – | 1525.3
298.15 K, m1 = 0.1804 | 1001.72 | –
298.15 K, m1 = 0.2009 | – | 1534.4
298.15 K, m1 = 0.2187 | 1002.66 | –
298.15 K, m1 = 0.2467 | – | 1542.1
298.15 K, m1 = 0.2653 | 1003.87 | –
298.15 K, m1 = 0.2965 | – | 1550.5
298.15 K, m1 = 0.3295 | 1005.34 | –
298.15 K, m1 = 0.3434 | – | 1558.2
298.15 K, m1 = 0.3595 | 1006.08 | –
298.15 K, m1 = 0.4046 | 1007.11 | –
298.15 K, m1 = 0.4049 | – | 1568.3
298.15 K, m1 = 0.4496 | – | 1575.2
298.15 K, m1 = 0.4561 | 1008.32 | –
298.15 K, m1 = 0.513 | – | 1584.9
298.15 K, m1 = 0.5714 | – | 1593.8
303.15 K, m1 = 0.03333 | 996.535 | –
303.15 K, m1 = 0.05233 | 997.021 | –
303.15 K, m1 = 0.07111 | 997.503 | –
303.15 K, m1 = 0.08607 | 997.878 | –
303.15 K, m1 = 0.1001 | 998.242 | –
303.15 K, m1 = 0.138 | 999.178 | –
303.15 K, m1 = 0.1804 | 1000.22 | –
303.15 K, m1 = 0.2187 | 1001.13 | –
303.15 K, m1 = 0.2653 | 1002.26 | –
303.15 K, m1 = 0.3295 | 1003.73 | –
303.15 K, m1 = 0.3595 | 1004.44 | –
303.15 K, m1 = 0.4046 | 1005.44 | –
303.15 K, m1 = 0.4561 | 1006.67 | –
308.15 K, m1 = 0.03234 | 994.871 | –
308.15 K, m1 = 0.05133 | 995.354 | –
308.15 K, m1 = 0.06493 | 995.698 | –
308.15 K, m1 = 0.08884 | 996.286 | –
308.15 K, m1 = 0.1058 | 996.698 | –
308.15 K, m1 = 0.1347 | 997.389 | –
308.15 K, m1 = 0.181 | 998.492 | –
308.15 K, m1 = 0.2182 | 999.371 | –
308.15 K, m1 = 0.2583 | 1000.3 | –
308.15 K, m1 = 0.3177 | 1001.66 | –
308.15 K, m1 = 0.3591 | 1002.6 | –
308.15 K, m1 = 0.4041 | 1003.61 | –
308.15 K, m1 = 0.4561 | 1004.69 | –
313.15 K, m1 = 0.03234 | 993.036 | –
313.15 K, m1 = 0.05133 | 993.509 | –
313.15 K, m1 = 0.06493 | 993.842 | –
313.15 K, m1 = 0.08884 | 994.427 | –
313.15 K, m1 = 0.1058 | 994.828 | –
313.15 K, m1 = 0.1347 | 995.499 | –
313.15 K, m1 = 0.181 | 996.579 | –
313.15 K, m1 = 0.2182 | 997.425 | –
313.15 K, m1 = 0.2583 | 998.325 | –
313.15 K, m1 = 0.3177 | 999.623 | –
313.15 K, m1 = 0.3591 | 1000.51 | –
313.15 K, m1 = 0.4041 | 1001.5 | –
313.15 K, m1 = 0.4561 | 1002.64 | –
